Test system: stable schizophrenia patients
Test: placebo controlled add-on trial of once-weekly D-cycloserine, negative symptoms by modified SANS total score
Type: in vivo, human
Procedure: Study procedures were approved by the Partners HealthCare and Massachusetts Department of Mental Health institutional review boards, and all participants provided written informed consent. A diagnosis of schizophrenia was confirmed by a consensus diagnostic conference based on results from a clinical diagnostic interview, chart review, and review of clinical history with treating physicians.
Subjects were administered the Positive and Negative Syndrome Scale (PANSS) (Kay et al., Schizophrenia Bulletin 13:261-276) to assess symptom severity by trained raters who were blind to genotype.
DNA was obtained from blood samples and genotyped for variants across two genes: G72 and GCPII. Specific variants were selected on the basis of (1) common occurrence in the general population (minor allele frequency >0.2), (2) coding for non-synonymous mutations in amino acid sequences, and (3) previous support in the literature for an association with schizophrenia. No additional genetic variants were studied. Genotyping was conducted using the MASSARRAY® platform (Sequenom, San Diego, Calif.) using the nucleotide primers shown in Table 2.
Negative symptoms were measured by the modified SANS total score at baseline and at week 8, seven days after the last dose of study drug. […] The sample was subsequently enlarged to 45 subjects and G72 genotype was examined as a predictor of response. G72 is the most-validated schizophrenia risk gene that influences activity at the glycine site of the NMDA receptor complex. One G72 SNP, rs3916971 (M21), that achieved significant association with schizophrenia risk in a meta-analysis performed by “SzGene” (Bertram, Schizophr Bull. 34:806-12, 2008) was examined. In the enlarged sample of 45 subjects, the effect size of D-cycloserine improvement of negative symptoms compared to placebo increased to 0.9 and G72 genotype produced a drug x genotype effect size of 0.7. Within subjects receiving D-cycloserine, G72 genotype predicted response with an effect size of 0.9 and within subjects with the TT genotype, the effect size of D-cycloserine improvement of negative symptoms vs. placebo was 2.3 (FIG. 1).

N[C@@H]1CONC1=O [D-cycloserine]
drug x genotype effect size (G72 rs3916971 genotype) (enlarged sample of 45 subjects): 0.7
effect size of improvement of negative symptoms compared to placebo (enlarged sample of 45 subjects, once-weekly 50 mg): 0.9
improvement of negative symptoms (modified SANS total score), effect size (once-weekly 50 mg add-on to antipsychotics, 38 stable schizophrenia patients, baseline to week 8, vs placebo): 0.7
patients exhibiting a 20% or greater improvement in SANS total score (once-weekly 50 mg, 38 patients, week 8 (placebo group 11%)): 30%
G72 genotype prediction of response, effect size (within subjects receiving D-cycloserine, enlarged sample): 0.9
effect size of improvement of negative symptoms vs. placebo (within subjects with the TT genotype at G72 rs3916971 (FIG. 1)): 2.3

From patent US20140142150A1, “TREATING NEUROPSYCHIATRIC DISORDERS” (THE GENERAL HOSPITAL CORPORATION, priority 2011, published 2014)
